Among the data in patent US20090318446A1, “4-(1H-Indol-3-yl)-Pyrimidin-2-Ylamine Derivatives and Their Use in Therapy” (Cyclacel Limited, priority 2005, published 2009) are IC50 values, retold here.

Some results are limits rather than exact numbers.

For assay [1], the target named is T1, aurora-B (Homo sapiens, UniProt Q96GD4).
T1 construct: purchased Upstate, Dundee, UK
Description: Aurora-B (human) kinase assay. It counts as biochemical. Particulars: Table 3; read-out: Kinase inhibition Aurora B. The procedure: This was achieved by measurement of incorporation of radioactive phosphate from ATP into Kemptide substrate (LRRASLG), upon phosphorylation by commercially obtained aurora-B (human, Upstate, Dundee, UK). Assays were performed using 96-well plates and appropriate assay buffers (20 mM Tris, 25 mM β-glycerophosphate, 5 mM EGTA, 1 mM DTT, 1 mM sodium vanadate, pH 7.5), into which were added 75 ng of pre-activated enzyme with 500 μM substrate (Kemptide). The reactions were initiated by addition of MgATP mix (15 mM MgCl2+100 μM ATP with 15-25 kBq per well of [γ-^32P]-ATP) and mixtures incubated for 60 min at 30° C. Reactions were stopped by addition of an equal volume of 75 mM aq orthophosphoric acid, followed by filtration through p81 filterplates (Whatman Polyfiltronics, Kent, UK). After washing 4 times with 75 mM aq orthophosphoric acid, plates were dried, scintillant added and incorporated radioactivity measured in a scintillation counter (TopCount, Packard Instruments, Pangbourne, Berks, UK). Compounds for kinase assay were made up as 10 mM stocks in DMSO and diluted into 10% DMSO in assay buffer. Data was analysed using curve-fitting software (XLfit version 4.0.2, IDBS, Guildford, Surrey, UK) to determine IC50 values (concentration of test compound which inhibits kinase activity by 50%).
Aurora-B (human, Upstate, Dundee, UK) was pre-activated immediately prior to kinase assay in appropriate buffers (20 mM Tris, 25 mM β-glycerophosphate, 5 mM EGTA, 1 mM DTT, 1 mM sodium vanadate, pH 7.5) by incubating 15 μg of enzyme with 4 μg INCENP (Upstate, Dundee, UK) in the presence of MgATP mix (15 mM MgCl2+100 μM ATP) for 15 min at 30° C.

The target in assay [2] is CDK2/cyclin A (Homo sapiens, UniProt P24941). Nature of the assay: Kinase assay CDK2/cyclin A. Type of assay: biochemical. Particulars: Table 2; read-out: Kinase inhibition IC50 CDK2A. How it is done:
(§1) The compounds from the examples above were investigated for their ability to inhibit the enzymatic activity of various protein kinases. This was achieved by measurement of incorporation of radioactive phosphate from ATP into appropriate polypeptide substrates. Recombinant protein kinases and kinase complexes were produced or obtained commercially. Assays were performed using 96-well plates and appropriate assay buffers (typically 25 mM β-glycerophosphate, 20 mM MOPS, 5 mM EGTA, 1 mM DTT, 1 mM […], pH 7.4), into which were added 2-4 μg of active enzyme with appropriate substrates. The reactions were initiated by addition of Mg/ATP mix (15 mM MgCl2+100 μM ATP with 30-50 kBq per well of [γ-^32P]-ATP) and mixtures incubated as required at 30° C. Reactions were stopped on ice, followed by filtration through p81 filterplates or GF/C filterplates (Whatman Polyfiltronics, Kent, UK). After washing 3 times with 75 mM aq orthophosphoric acid, plates were dried, scintillant added and incorporated radioactivity measured in a scintillation counter (TopCount, Packard Instruments, Pangbourne, Berks, UK). Compounds for kinase assay were made up as 10 mM stocks in DMSO and diluted into 10% DMSO in assay buffer. Data was analysed using curve-fitting software (GraphPad Prism version 3.00 for Windows, GraphPad Software, San Diego Calif. USA) to determine IC50 values (concentration of test compound which inhibits kinase activity by 50%).

Assay [3] addresses Drosophila Aurora A (Drosophila melanogaster, UniProt Q9VGF9). Description: Aurora A kinase assay (Drosophila enzyme). Particulars: Table 3, values marked *: Drosophila Aurora A; read-out: Kinase inhibition Aurora A (*Drosophila Aurora A). It counts as biochemical. How it is done: as §1
Assay [4] addresses GSK-3β (Oryctolagus cuniculus, UniProt G1T8E2). Nature of the assay: GSK-3β kinase assay. Particulars: Table 2; read-out: Kinase inhibition IC50 GSK3. It counts as biochemical, rabbit. The procedure: GSK-3 was obtained from New England Biolabs (UK) Ltd., Hitchin, Herts. The recombinant enzyme was isolated from a strain of E. coli that carries a clone expressing GSK-3β derived from a rabbit skeletal muscle cDNA library [Wang, Q. M.; Fiol, C. J.; DePaoli-Roach, A. A.; Roach, P. J. J. Biol. Chem., 1994, 269, 14566]. Inhibition of GSK-3 function was assessed by measurement of phosphorylation of CREB phosphopeptide KRREILSRRPphosphoSYR in the presence of test compounds. Using a 96-well assay format, GSK3 (7.5 U) was incubated for 30 min at 30° C. in a total volume of 25 μL in 20 mM MOPS pH 7.2, 25 mM β-glycerophosphate, 5 mM EGTA, 1 mM DTT, 1 mM […], 40 μM CREB peptide, 15 mM MgCl2 and 100 μM ATP (containing 0.25 μCi [γ-^32P]-ATP) in the presence of varying concentrations of test compound. The samples were transferred to 96-well p81 filter plates (Whatman Polyfiltronics, Kent, UK), and the plates were washed 4 times with 200 μL/well of 75 mM aq orthophosphoric acid. Scintillation liquid (50 μL) was added to each well, and incorporated radioactivity for each sample was determined using a scintillation counter (TopCount, Packard Instruments, Pangbourne, Berks, UK).

The target of assay [5] is CDK1/cyclin B (Homo sapiens, UniProt P06493). Nature of the assay: Kinase assay CDK1/cyclin B. Particulars: Table 2; read-out: Kinase inhibition IC50 CDK1B. It counts as biochemical. The procedure:
as §1

Chain of Drosophila Aurora A (Q9VGF9 entry or part of it): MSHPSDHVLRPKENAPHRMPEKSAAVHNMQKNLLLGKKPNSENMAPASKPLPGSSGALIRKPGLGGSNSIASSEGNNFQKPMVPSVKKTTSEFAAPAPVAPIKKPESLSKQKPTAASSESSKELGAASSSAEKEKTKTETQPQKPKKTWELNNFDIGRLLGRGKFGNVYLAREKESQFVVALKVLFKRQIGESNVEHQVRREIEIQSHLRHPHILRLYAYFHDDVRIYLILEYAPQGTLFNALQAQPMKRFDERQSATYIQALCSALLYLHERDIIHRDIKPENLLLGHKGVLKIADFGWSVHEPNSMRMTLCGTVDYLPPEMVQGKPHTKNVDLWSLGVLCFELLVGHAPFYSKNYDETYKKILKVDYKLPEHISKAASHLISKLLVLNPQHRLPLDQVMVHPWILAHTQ
Chain of CDK1/cyclin B (P06493 whole entry, species assumed): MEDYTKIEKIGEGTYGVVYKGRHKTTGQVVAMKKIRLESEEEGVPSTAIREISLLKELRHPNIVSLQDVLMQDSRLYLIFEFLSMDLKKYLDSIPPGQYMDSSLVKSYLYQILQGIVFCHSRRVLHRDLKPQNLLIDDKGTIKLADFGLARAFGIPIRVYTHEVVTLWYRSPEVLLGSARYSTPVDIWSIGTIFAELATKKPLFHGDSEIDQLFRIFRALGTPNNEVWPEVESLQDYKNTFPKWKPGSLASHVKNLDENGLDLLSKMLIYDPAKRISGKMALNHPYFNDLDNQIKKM
Chain of CDK1/cyclin B (P14635 whole entry partner, species assumed): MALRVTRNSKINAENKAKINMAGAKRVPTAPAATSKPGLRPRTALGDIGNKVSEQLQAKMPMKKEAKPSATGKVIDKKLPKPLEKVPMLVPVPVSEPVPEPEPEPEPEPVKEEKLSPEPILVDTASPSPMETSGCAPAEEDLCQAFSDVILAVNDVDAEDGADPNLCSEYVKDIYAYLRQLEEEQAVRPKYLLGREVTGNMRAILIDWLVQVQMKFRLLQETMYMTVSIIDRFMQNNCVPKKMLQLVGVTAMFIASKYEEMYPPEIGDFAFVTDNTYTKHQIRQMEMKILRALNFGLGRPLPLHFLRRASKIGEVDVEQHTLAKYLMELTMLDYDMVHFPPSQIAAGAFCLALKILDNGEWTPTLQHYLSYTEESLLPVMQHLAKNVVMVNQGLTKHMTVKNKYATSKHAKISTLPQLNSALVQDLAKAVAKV
T1 sequence (Q96GD4 whole entry): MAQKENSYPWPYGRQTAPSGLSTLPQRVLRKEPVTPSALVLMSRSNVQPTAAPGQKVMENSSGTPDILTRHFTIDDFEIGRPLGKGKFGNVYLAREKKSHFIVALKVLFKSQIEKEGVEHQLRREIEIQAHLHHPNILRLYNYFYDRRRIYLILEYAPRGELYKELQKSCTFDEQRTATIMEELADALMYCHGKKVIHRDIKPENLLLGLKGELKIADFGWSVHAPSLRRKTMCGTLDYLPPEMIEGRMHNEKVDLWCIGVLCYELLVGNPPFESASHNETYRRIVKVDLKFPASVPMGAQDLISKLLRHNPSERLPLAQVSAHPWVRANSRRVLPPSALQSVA
Chain of GSK-3β (G1T8E2 1-432): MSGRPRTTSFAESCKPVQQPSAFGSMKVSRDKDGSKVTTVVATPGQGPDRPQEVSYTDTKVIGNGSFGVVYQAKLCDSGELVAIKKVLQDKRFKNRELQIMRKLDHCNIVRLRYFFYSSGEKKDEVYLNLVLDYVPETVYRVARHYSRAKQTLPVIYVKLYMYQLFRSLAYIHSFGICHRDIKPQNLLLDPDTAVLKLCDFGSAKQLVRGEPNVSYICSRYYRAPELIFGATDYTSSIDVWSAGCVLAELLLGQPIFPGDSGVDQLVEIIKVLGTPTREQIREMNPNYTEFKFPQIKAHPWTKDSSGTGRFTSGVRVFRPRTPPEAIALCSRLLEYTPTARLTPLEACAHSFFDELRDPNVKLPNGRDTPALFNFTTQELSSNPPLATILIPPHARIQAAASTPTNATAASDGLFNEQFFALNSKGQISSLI

Regarding `c1ccc2c(-c3ccnc(Nc4ccc(N5CCNCC5)cc4)n3)c[nH]c2c1` [Compound 7, 4-(1H-indol-3-yl)-N-(4-piperazin-1-ylphenyl)pyrimidin-2-amine], the IC50 in assay [1] turned out to be 0.17 µM.

Consider `COc1ccc(Nc2nccc(-c3c[nH]c4ccccc34)n2)cn1` [Compound 4, [4-(1H-Indol-3-yl)-pyrimidin-2-yl]-(6-methoxy-pyridin-3-yl)-amine], for which the IC50 in assay [2] was found to be 2.6 µM; in assay [3] it was 0.243 µM; in assay [4], 1.6 µM; in assay [5] it was 1.9 µM.

Turning to `Fc1ccc(Nc2nccc(-c3c[nH]c4ccccc34)n2)cc1` [Compound 3, (4-Fluoro-phenyl)-[4-(1H-indol-3-yl)-pyrimidin-2-yl]-amine], the IC50 is over 100 µM in assay [2], 1.05 µM in assay [3], 8.7 µM in assay [4] and over 100 µM in assay [5].

For `CC(=O)N1CCN(c2ccc(Nc3nccc(-c4c[nH]c5c(C)cccc45)n3)cc2)CC1` [Compound 23], in assay [1], the IC50 was determined as 0.0761 µM.

With `O=[N+]([O-])c1cccc(Nc2nccc(-c3c[nH]c4ccccc34)n2)c1` [Compound 2, [4-(1H-Indol-3-yl)-pyrimidin-2-yl]-(3-nitro-phenyl)-amine], the IC50 in assay [2] is over 100 µM; in assay [3] it was 0.274 µM; in assay [4], 2.1 µM; in assay [5], over 100 µM.

Turning to `CC(=O)N1CCN(c2ccc(Nc3nccc(-c4c[nH]c5ccccc45)n3)cc2)CC1` [Compound 6, 4-(1H-indol-3-yl)-N-(4-acetylpiperazin-1-ylphenyl)pyrimidin-2-amine], the IC50 in assay [1] was found to be 0.125 µM.

For `CC1CN(c2ccc(Nc3nccc(-c4c[nH]c5ccccc45)n3)cc2)CC(C)O1` (stereo not drawn) [Compound 9], the IC50 in assay [1] came to 0.158 µM.

`c1ccc2c(-c3ccnc(Nc4ccc(N5CCOCC5)cc4)n3)c[nH]c2c1` [Compound 5, [4-(1H-Indol-3-yl)-pyrimidin-2-yl]-(4-morpholin-4-yl-phenyl)-amine]: the IC50 in assay [1] came to 0.26 µM.

Consider `CN(C)c1ccc(Nc2nccc(-c3c[nH]c4ccccc34)n2)cc1` [Compound 10, N′-[4-(1H-indol-3-yl)pyrimidin-2-yl]-N,N-dimethylbenzene-1,4-diamine], for which the IC50 in assay [1] worked out at 0.729 µM.

For the compound `COc1cc(Nc2nccc(-c3c[nH]c4ccccc34)n2)cc(OC)c1OC` [Compound 12, 4-(1H-indol-3-yl)-N-(3,4,5-trimethoxyphenyl)pyrimidin-2-amine], the IC50 in assay [1] stood at 0.0664 µM.

Turning to `COc1cc(Nc2nccc(-c3c[nH]c4ccccc34)n2)ccc1N1CCOCC1` [Compound 13, 4-(1H-indol-3-yl)-N-(3-methoxyl-4-morpholin-4-ylphenyl)pyrimidin-2-amine], in assay [1], the IC50 is 0.228 µM.

As for `CC(=O)N1CCN(c2ccc(Nc3nccc(-c4c(C)[nH]c5ccccc45)n3)cc2)CC1` [Compound 22], in assay [1], the IC50 stood at 0.0246 µM.
